Data set [1] in a line: Freeze thaw stability of LNP formulations (storage at 4° C., −80° C. or flash frozen in liquid nitrogen; DLS). The data set is classed as physicochemical. Conditions: one freeze thaw cycle, relative to 4 C storage. Here is the method:
Following the preparation of the targeted LNP formulation, the formulation was split into two portions. One portion was exchanged into 40 mM pH 7.4 HEPES buffer, and the other portion was exchanged into 30 mM pH 7.4 Tris buffer. The buffer exchange was performed using a discontinuous diafiltration method where the LNP formulation sample was transferred into a centrifugal ultrafiltration device with […] MWCO regenerated cellulose membrane (Amicon Ultra-4, MilliporeSigma, Massachusetts, US), then diluted 10-fold with the exchange buffer, and concentrated back to the original volume by centrifuging at 500 rcf. This dilution and concentration step was repeated one additional time. The exchanged LNP samples were then divided into separate aliquots that were mixed with concentrated sodium chloride and sucrose solutions to provide the final freeze-thaw sample formulations. Samples of each freeze-thaw formulation were then stored at 4° C., frozen at −80° C., or flash frozen in liquid nitrogen. The samples were later thawed at room temperature and tested for size by DLS and in vitro T cell transfection.

Data set [2] is described as follows: Hydrodynamic diameter and polydispersity of LNPs by dynamic light scattering (DLS), Zetasizer. The data set is classed as physicochemical. Particulars: insertion of anti-CD3 hSP34-PEG2k-DSPE conjugate. Here is the method:
(§1) Samples of the LNPs produced in Example 2 were characterized to determine the average hydrodynamic diameter, zeta potential, and mRNA content (total and dye-accessible). The hydrodynamic diameter was determined by dynamic light scattering (DLS) using a Zetasizer model ZEN3600 (Malvern Pananalytical, UK). The zeta potential was measured in 5 mM pH 5.5 MES buffer and 5 mM pH 7.4 HEPES buffer by laser Doppler electrophoresis using the Zetasizer.

Data set [3] is described as follows: Quant-iT RiboGreen RNA assay: dye accessible and total (Triton) mRNA content, encapsulation. The data set is classed as physicochemical. Conditions: Table 9: Lipid 2 and Lipid 6 LNP. The method, then:
RNA content of the nanoparticles is measured using Thermo Fisher Quant-iT RiboGreen RNA Assay Kit. Dye accessible RNA, which includes both non-incorporated RNA and RNA that is near the surface of the nanoparticle, is measured by diluting the nanoparticles to approximately 1 μg/mL mRNA using HEPES buffered saline, and then adding Quant-iT reagent to the mixture. Total RNA content is measured by diluting the particles to 1 μg/mL mRNA using HEPES buffered saline, disrupting the nanoparticles by heating them to 60° C. for 30 minutes in HEPES buffered saline containing 0.5% Triton, and then adding Quant-It reagent. RNA is quantified by measuring fluorescence at 485/535 nm, and concentration is determined relative to a contemporaneously run RNA standard curve.

Data set [4] can be described thus: Zeta potential of LNPs by laser Doppler electrophoresis in 5 mM pH 5.5 MES and 5 mM pH 7.4 HEPES buffer. The data set is classed as physicochemical. Particulars: pH 5.5 MES and pH 7.4 HEPES buffer. The method, then:
as §1

Data set [5] in a line: Apparent pKa of LNPs by TNS fluorescent probe. The data set is classed as physicochemical. Particulars: LNP made with the named ionizable lipid; pH at 50% of maximum TNS fluorescence. An excerpt: This example describes the fluorescent dye based method used for measurement of the apparent pKa of the lipid nanoparticles. Apparent pKa determines the nanoparticle surface charge under physiological pH conditions, typically a pKa value in the endosomal pH range (6-7.4) results in LNPs that are neutral or slightly charged at plasma or the extracellular space (pH 7.4) and become strongly positive under acidic endosomal environments. This positive surface charge drives fusion of the LNP surface with negatively charged endosomal membranes resulting in destabilization and rupture of the endosomal compartment and LNP escape into the cytosolic compartment, a critical step in cytosolic delivery of mRNA and protein expression via engagement of the cells ribosomal machinery.
The apparent pKa of LNPs made using ionizable Lipids 2, 5 (synthesized as described in example 1), 6 and 7 (synthesized using method analogous to Lipid 2, 5, respectively, except using diethyl amine instead of dimethyl amine to incorporate the tertiary amine head group) were determined by 6-(p-Toluidino)-2-naphthalenesulfonic acid (TNS) fluorescence measurement in aqueous buffers covering a range of pH values (pH 4-pH 10). TNS is non-fluorescent when free in solution, but which fluoresces strongly when associated with a positively charged lipid nanoparticle. At a pH values below the pKa of the nanoparticle, positive LNP surface charge results in dye recruitment at the particle interface resulting in TNS fluorescence. At pH values above the LNP pKa no fluorescence is observed. The apparent pKa of the LNP is reported as the pH at which the fluorescence is at 50% of its maximum, as determined using a four-point logistic curve fit.

The subject of data set [6] is primary human T-cells (CD3+ T cells). Description: In vitro LNP transfection of primary human T-cells (GFP, Cy5 or DiI, viability by FACS). The data set is classed as cell-based. An excerpt:
This example describes the protocol used for in vitro LNP transfections in primary human T-cells. This method is used to assess LNP in vitro efficacy in relevant target cells (CD3+ T cells) by first transfecting the cells using LNPs loaded with mRNA encoding for a reporter gene, such as GFP mRNA, and then assessing transfection by measuring reporter gene expression by fluorescence-[…] cell sorting (FACS). Additionally, particle association with cells may be observed by in the same assay by labeling individual nanoparticle components, such as the mRNA, with a fluorescent dye, such as Cy5, and then observing cell/dye association by FACS.
CD3+ T cells were isolated from frozen peripheral blood mononuclear cells using an EasySep Human T Cell Isolation Kit on a RoboSep automated cell isolation system from […]. T cells were plated into a flat bottom 96-well plate in RPMI cell culture media supplemented with glutamax, 10% fetal bovine serum, and 40 ng/mL IL2. 100 μL of cell suspension was seeded per well at a density of 1M T cells/mL (100K T cells/well). Cells were allowed to rest for two hours in a 37° C. incubator, and then were transfected by gently adding 10 μL of a 22 μg/mL (by mRNA) nanoparticle suspension, resulting in a final mRNA concentration of 2 μg/mL. Cells were gently mixed with a pipette and then incubated for 24 hours in a 37° C. incubator. After incubation the cells were analyzed using an ThermoFisher Attune NXT flow cytometer. Cy5 was detected using a 638 nm laser with 670/14 nm filter. eGFP was detected using a 488 nm laser and a 530/30 nm filter. Data were analyzed using FlowJo software from BD biosciences. FACS data were first gated to exclude doublets and dead cells and then gated for GFP and Cy5. Gates for GFP+ and Cy5+were set such that a control sample (PBS treated T cells) was <0.1% positive.
CD3+ T cells were isolated from frozen peripheral blood mononuclear cells using an EasySep Human T Cell Isolation Kit on a RoboSep automated cell isolation system from […]. T cells were plated into a round bottom 96-well plate in RPMI cell culture media supplemented with glutamax, 10% fetal bovine serum, pen-strep, and 40 ng/mL IL-2. 100 μL of cell suspension was seeded per well at a density of 1M T cells/mL (100K T cells/well). Cells were allowed to rest for two hours in a 37° C. incubator, and then were transfected by gently adding 10 μL of a 22 μg/mL (by mRNA) nanoparticle suspension, resulting in a final mRNA concentration of 2 μg/mL (unless otherwise noted). Cells were gently mixed with a pipette and then incubated for 24 hours in a 37° C. incubator. After incubation the cells were diluted with FACS buffer (BD 554657) and analyzed using a BD Fortessa flow cytometer. Data were analyzed using FlowJo software from BD biosciences.
On the technique in general: In flow cytometry, cells or beads pass a laser one at a time.

The test system of a further data set is human CD8 T cells. The data set is described as follows: Transfection of human CD8 T cells with Fab-targeted Cy5/GFP mRNA LNPs. The data set is classed as cell-based. Conditions: Lipid 8 LNP, Cy5/GFP mRNA approximately 2.5 μg/mL, approximately 24 hr, Fab conjugate post-inserted. Here is the method: LNPs were prepared using the mixing process described in Example 6, the buffer exchange process described in Example 21. hSP34 and TRX2 Fab-lipid conjugates generated from methods described in Example 4 and a non-T cell specific anti-HER2 lipid-conjugate (Nellis D F, Ekstrom D L, Kirpotin D B, Zhu J, Andersson R, Broadt T L, Ouellette T F, Perkins S C, Roach J M, Drummond D C, Hong K, Marks J D, Park J W and Giardina S L (2005) Preclinical manufacture of an anti-HER2 scFv-PEG-DSPE, liposome-inserting conjugate. 1. Gram-scale production and purification. Biotechnol Prog 21:205-220) were post-inserted at various densities (SP34 0.6-17 g/mol; TRX2 3-9 g/mol; anti-HER2 17 g/mol) into LNPs containing Lipid 8, Cy5 labeled GFP mRNA and GFP mRNA (1:9 Cy5:GFP mass ratio) by adding conjugate and LNPs together and heating the solution without mixing in a thermal cycler at 60 C for 60 min and cooled to 4° C. for 3-5 min. […] After transfection, LNP binding efficiency (Cy5) and transfection efficiency (GFP) was evaluated by flow cytometry. Supernatants were measured for human IFNγ concentration using a commercially available ELISA kit under manufacturers recommended conditions (R&D Systems Duoset). […]

[7] abbreviates: theoretical total mRNA 45 μg/mL.

“Also recorded” adds a separate entry of the source.

Take `CCCCC/C=C\C/C=C\CCCCCCCC(=O)OC[C@H](COC(=O)CCCN(CC)CC)OC(=O)CCCCCCC/C=C\C/C=C\CCCCC` [Lipid 6]: the “LNP size and polydispersity after freeze-thaw, in words” value in data set [1] is reported as “minor changes in particle size distributions after frozen storage at −80 C”. For the same compound, the “change in particle size and PDI upon conjugate insertion” value in data set [2] is “significantly greater size distribution changes compared to Lipid 12 and Lipid 13 LNPs; also recorded: moderate changes in particle size and PDI”. In addition, the “% Dye Accessible mRNA” value in data set [3] is given as 15%. Further, in data set [3] (setting [7]), the “Measured total (Triton method) mRNA” value is 40 µg/mL and the “Ribogreen Dye Accessible mRNA” value came out at 6 µg/mL. In addition, the “LNP surface charge (zeta potential), in words” value in data set [4] is “greater positive surface charge relative to Lipid 12 and 13”. In addition, the “apparent pKa of LNP (TNS)” value in data set [5] is about 7. For the same compound, in data set [6] (after one freeze thaw cycle, relative to 4 C storage), the “T-cell transfection and cell association after freeze-thaw, in words” value was “retained function after being subjected to freeze-thaw stress”. For the same compound, the “GFP protein expression (% GFP+ cells, GFP MFI), in words” value in data set [6] (hSP34 targeted LNP with GFP mRNA, 24 hours) is reported as “Dose dependent expression of GFP protein”. Besides, the “LNP association with cells (% Cy5+/Cy5 MFI or % DiI+/DiI MFI), in words” value in data set [6] (hSP34 targeted LNP, 24 hours) is “equally associated with cells”. Moreover, in data set [6] (hSP34 targeted LNP, 24 hours, dose as in the value), the “T-cell viability / tolerability, in words” value is “well tolerated by T-cells at all LNP doses tested; also recorded: moderately higher viability at higher dose of 2 μg/mL”.
On to Hu291: anti-CD3 Fab, SEQ ID NO: 4 and 5, for which, in the data set on human CD8 T cells, the “transfection (% GFP+, GFP MFI) and binding (% Cy5+, Cy5 MFI), in words” value is listed as “high levels of % Cy5+ T cells”.

Source of the values: patent US20220218614A1, “IONIZABLE CATIONIC LIPIDS AND LIPID NANOPARTICLES, AND METHODS OF SYNTHESIS AND USE THEREOF” (Tidal Therapeutics, Inc., priority 2020, published 2022).
